Laboratory results reported in the NIST ThermoML archive (doi:10.1016/j.jct.2016.03.025).
Numbers after ± are expanded uncertainties.

Experiments:
[1] = 293.15 K; 101.33 kPa; Liquid; Vibrating tube method
[2] = refractive index (Na D-line) (dimensionless); conditions: 293.15 K; 101.33 kPa; Liquid; Standard Abbe refractometry
[3] = wn = mass fraction of the nth substance listed; conditions: 293.15 K; 101.3 kPa; Liquid; Vibrating tube method; w1 = 0.85
[4] = refractive index (Na D-line) (dimensionless); wn = mass fraction of the nth substance listed; conditions: 293.15 K; 101.3 kPa; Liquid; Standard Abbe refractometry; w1 = 0.85

| Compound | mass density [1] | refractive index [2] | mass density [3] | refractive index [4] |
| --- | --- | --- | --- | --- |
| O [water] | 998.3 ± 1 kg/m3 | 1.333 ± 0.001 | – | – |
| O=P(O)(O)O [phosphoric acid] + O | – | – | 1682.8 ± 1 kg/m3 | 1.4345 ± 0.001 |
| CC(=O)OC1CCCCC1 [cyclohexyl ethanoate] | 970.1 ± 1.2 kg/m3 | 1.4425 ± 0.0011 | – | – |
| CCCCCCOC(C)=O [hexyl ethanoate] | 873.3 ± 1.2 kg/m3 | 1.4096 ± 0.0011 | – | – |
